From patent publication US20250059220A1, “SUBSTITUTED BENZOTHIOPHENE DERIVATIVES AND METHODS OF USE THEREOF” (Merck Sharp & Dohme LLC, priority 2021, published 2025)

Columns and labels:
[1] = biological target: human PTPN1 (1-435) (Homo sapiens (Human), UniProt P18031); assay: Human PTPN1 Biochemical Assay; settings: DiFMUP substrate, read-out: PTP1B IC50
In short: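 Read-out is DiFMUP hydrolysis fluorescence (360 nm excitation, 460 nm emission) after 1 h at room temperature, following 30 min enzyme–compound preincubation.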

[2] = biological target: human PTPN2 (1-387) (Homo sapiens (Human), UniProt P17706); assay: Human PTPN2 Biochemical Assay; settings: DiFMUP substrate
In short: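 Human PTPN2 (1-387) preincubated 30 min at RT with compound (10-point 3-fold series) in Tris pH 7.4 buffer with 0.5 mM DTT, then DiFMUP substrate added for 1 h at RT. Fluorescence at ex 360/em 460 nm, normalised to no-enzyme and enzyme controls; EC50 from 4-parameter fit.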

Chain of human PTPN2 (1-387) (P17706 other isoform, or with tags, fused parts or gaps): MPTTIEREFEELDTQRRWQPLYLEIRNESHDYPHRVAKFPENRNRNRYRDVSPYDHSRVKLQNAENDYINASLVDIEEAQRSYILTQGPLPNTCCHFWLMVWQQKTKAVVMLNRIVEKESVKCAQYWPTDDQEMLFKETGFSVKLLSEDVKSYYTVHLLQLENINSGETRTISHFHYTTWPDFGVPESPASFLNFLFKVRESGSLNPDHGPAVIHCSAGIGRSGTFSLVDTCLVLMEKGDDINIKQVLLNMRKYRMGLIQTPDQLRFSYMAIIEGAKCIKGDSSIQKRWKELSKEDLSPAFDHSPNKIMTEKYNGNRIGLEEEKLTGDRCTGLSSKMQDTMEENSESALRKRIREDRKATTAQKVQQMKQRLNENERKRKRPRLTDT
Chain of human PTPN1 (1-435) (P18031 whole entry): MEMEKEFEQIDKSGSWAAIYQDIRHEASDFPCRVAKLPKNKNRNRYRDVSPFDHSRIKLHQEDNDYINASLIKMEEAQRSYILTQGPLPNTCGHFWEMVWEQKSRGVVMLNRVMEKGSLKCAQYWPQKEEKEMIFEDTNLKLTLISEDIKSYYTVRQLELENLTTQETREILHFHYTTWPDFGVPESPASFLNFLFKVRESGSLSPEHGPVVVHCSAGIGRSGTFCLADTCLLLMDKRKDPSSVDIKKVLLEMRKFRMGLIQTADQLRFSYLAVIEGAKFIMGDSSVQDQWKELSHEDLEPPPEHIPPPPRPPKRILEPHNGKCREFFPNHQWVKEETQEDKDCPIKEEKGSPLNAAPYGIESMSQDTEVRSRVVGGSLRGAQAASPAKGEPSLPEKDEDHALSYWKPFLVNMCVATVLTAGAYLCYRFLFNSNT

## O=P(O)(O)C(F)(F)c1sc2c(OCCCC(F)(F)F)cc(-c3ccn[nH]3)cc2c1Br [Compound 260, ((3-bromo-5-(1H-pyrazol-5-yl)-7-(4,4,4-trifluorobutoxy)benzo[b]thiophen-2-yl)difluoromethyl)phosphonic acid]
[1]
  IC50: 11.4 nM
[2]
  IC50: 15.7 nM

## N=C(N)c1cc(OCCCC(F)(F)F)c2sc(C(F)(F)P(=O)(O)O)c(Br)c2c1 [Compound 262, ((3-bromo-5-carbamimidoyl-7-(4,4,4-trifluorobutoxy)benzo[b]thiophen-2-yl)difluoromethyl)phosphonic acid]
[1]
  IC50: 42 nM
[2]
  IC50: 113 nM

## O=P(O)(O)C(F)(F)c1sc2c(OCCCC(F)(F)F)cc(CN3CCOCC3)cc2c1Br [Compound 263, ((3-bromo-5-(morpholinomethyl)-7-(4,4,4-trifluorobutoxy)benzo[b]thiophen-2-yl)difluoromethyl)phosphonic acid]
[1]
  IC50: 386 nM
[2]
  IC50: 651 nM

## NC(=O)c1cc(OCCC2CCCS2(=O)=O)c2sc(C(F)(F)P(=O)(O)O)c(Br)c2c1 (stereo not shown) [Compound 264, ((3-bromo-5-carbamoyl-7-(2-(1,1-dioxidotetrahydrothiophen-2-yl)ethoxy)benzo[b]thiophen-2-yl)difluoromethyl)phosphonic acid]
[1]
  IC50: 24 nM
[2]
  IC50: 26.3 nM

## O=C(NCc1cccnn1)c1cc(OCCCCn2ccnc2)c2sc(C(F)(F)P(=O)(O)O)c(Br)c2c1 [Compound 265]
[1]
  IC50: 62 nM
[2]
  IC50: 60.3 nM

## O=C(NCc1cccnn1)c1cc(OCCCc2cccnc2)c2sc(C(F)(F)P(=O)(O)O)c(Br)c2c1 [Compound 266]
[1]
  IC50: 17.4 nM
[2]
  IC50: 12.9 nM

## O=C(NCc1cccnn1)c1cc(OCCCc2ccncc2)c2sc(C(F)(F)P(=O)(O)O)c(Br)c2c1 [Compound 267]
[1]
  IC50: 26 nM
[2]
  IC50: 12.2 nM

## O=C(NCc1cccnn1)c1cc(OCCCc2cncs2)c2sc(C(F)(F)P(=O)(O)O)c(Br)c2c1 [Compound 268]
[1]
  IC50: 15.7 nM
[2]
  IC50: 20 nM

## NC(=O)c1cc(OCCCc2cncs2)c2sc(C(F)(F)P(=O)(O)O)c(Br)c2c1 [Compound 269]
[1]
  IC50: 37.1 nM
[2]
  IC50: 26.4 nM

## CS(=O)(=O)CCCOc1cc(C(N)=O)cc2c(Br)c(C(F)(F)P(=O)(O)O)sc12 [Compound 270]
[1]
  IC50: 23.3 nM
[2]
  IC50: 21.6 nM

## NC(=O)c1cc(OCCC(F)(F)F)c2sc(C(F)(F)P(=O)(O)O)c(Br)c2c1 [Compound 271]
[1]
  IC50: 400 nM
[2]
  IC50: 338 nM

## NC(=O)c1cc(OCCCC(F)(F)C(F)(F)F)c2sc(C(F)(F)P(=O)(O)O)c(Br)c2c1 [Compound 272]
[1]
  IC50: 35 nM
[2]
  IC50: 47.2 nM

## CCOCCCOc1cc(C(N)=O)cc2c(Br)c(C(F)(F)P(=O)(O)O)sc12 [Compound 273]
[1]
  IC50: 93 nM
[2]
  IC50: 132 nM

## NC(=O)c1cc(OCCCCC(F)(F)F)c2sc(C(F)(F)P(=O)(O)O)c(Br)c2c1 [Compound 274]
[1]
  IC50: 43 nM
[2]
  IC50: 64.9 nM

## NC(=O)c1cc(OCC2CC(F)(F)C2(F)F)c2sc(C(F)(F)P(=O)(O)O)c(Br)c2c1 (stereo not shown) [Compound 275]
[1]
  IC50: 83 nM
[2]
  IC50: 176 nM

## NC(=O)c1cc(OCC2CC3(C2)CC(F)(F)C3)c2sc(C(F)(F)P(=O)(O)O)c(Br)c2c1 [Compound 276]
[1]
  IC50: 17 nM
[2]
  IC50: 27.3 nM

## C[C@@H]1C[C@@]1(F)COc1cc(C(N)=O)cc2c(Br)c(C(F)(F)P(=O)(O)O)sc12 [Compound 277]
[1]
  IC50: 69 nM
[2]
  IC50: 108 nM

## CC(C)(C#N)CCCOc1cc(C(N)=O)cc2c(Br)c(C(F)(F)P(=O)(O)O)sc12 [Compound 278]
[1]
  IC50: 16 nM
[2]
  IC50: 17.4 nM

## NC(=O)c1cc(OC[C@@H]2CC[C@H]2C(F)(F)F)c2sc(C(F)(F)P(=O)(O)O)c(Br)c2c1 [Compound 279]
[1]
  IC50: 97 nM
[2]
  IC50: 231 nM

## NC(=O)c1cc(OCC2CC(OC(F)(F)F)C2)c2sc(C(F)(F)P(=O)(O)O)c(Br)c2c1 (stereo not shown) [Compound 280]
[1]
  IC50: 62 nM
[2]
  IC50: 99.4 nM

## CC(F)(F)CCCOc1cc(C(N)=O)cc2c(Br)c(C(F)(F)P(=O)(O)O)sc12 [Compound 281]
[1]
  IC50: 18 nM
[2]
  IC50: 27.8 nM

## NC(=O)c1cc(OCC[C@@H]2C[C@H]2C(F)(F)F)c2sc(C(F)(F)P(=O)(O)O)c(Br)c2c1 [Compound 282]
[1]
  IC50: 71 nM
[2]
  IC50: 168 nM

## CC12CC(COc3cc(C(N)=O)cc4c(Br)c(C(F)(F)P(=O)(O)O)sc34)(C1)C2 [Compound 283]
[1]
  IC50: 28 nM
[2]
  IC50: 50.2 nM

## NC(=O)c1cc(OCC2CC3(CCC3)C2)c2sc(C(F)(F)P(=O)(O)O)c(Br)c2c1 [Compound 284]
[1]
  IC50: 42 nM
[2]
  IC50: 64.5 nM

## NC(=O)c1cc(OCCCCC(F)(F)C(F)(F)F)c2sc(C(F)(F)P(=O)(O)O)c(Br)c2c1 [Compound 285]
[1]
  IC50: 45 nM
[2]
  IC50: 77.9 nM

## NC(=O)c1cc(OCCC2CC2(F)F)c2sc(C(F)(F)P(=O)(O)O)c(Br)c2c1 (stereo not shown) [Compound 286]
[1]
  IC50: 40 nM
[2]
  IC50: 76.9 nM

## NC(=O)c1cc(OCC2C3CC4C(C3)C24)c2sc(C(F)(F)P(=O)(O)O)c(Br)c2c1 (stereo not shown) [Compound 287]
[1]
  IC50: 16 nM
[2]
  IC50: 45.3 nM

## N#CC1(c2ccc(COc3cc(C(N)=O)cc4c(Br)c(C(F)(F)P(=O)(O)O)sc34)cc2)CC1 [Compound 288]
[1]
  IC50: 7.3 nM
[2]
  IC50: 6.86 nM

## CC[C@@H]1C[C@H]1COc1cc(C(N)=O)cc2c(Br)c(C(F)(F)P(=O)(O)O)sc12 [Compound 289]
[1]
  IC50: 53.6 nM
[2]
  IC50: 63.2 nM

## NC(=O)c1cc(OCC23COC(CF)(C2)C3)c2sc(C(F)(F)P(=O)(O)O)c(Br)c2c1 [Compound 290]
[1]
  IC50: 11 nM
[2]
  IC50: 9.74 nM

## NC(=O)c1cc(OCCC(F)(F)C(F)(F)C(F)F)c2sc(C(F)(F)P(=O)(O)O)c(Br)c2c1 [Compound 291]
[1]
  IC50: 21 nM
[2]
  IC50: 26.8 nM

## CC1(C)CC(COc2cc(C(N)=O)cc3c(Br)c(C(F)(F)P(=O)(O)O)sc23)C1 [Compound 292]
[1]
  IC50: 49 nM
[2]
  IC50: 78.6 nM

## NC(=O)c1cc(OCCC23CC(C2)C3)c2sc(C(F)(F)P(=O)(O)O)c(Br)c2c1 [Compound 293]
[1]
  IC50: 246 nM
[2]
  IC50: 619 nM

## NC(=O)c1cc(OCC2C(F)(F)C23CCC3)c2sc(C(F)(F)P(=O)(O)O)c(Br)c2c1 (stereo not shown) [Compound 294]
[1]
  IC50: 38 nM
[2]
  IC50: 80.7 nM

## NC(=O)c1cc(OCC2CC(C3CC3)C2)c2sc(C(F)(F)P(=O)(O)O)c(Br)c2c1 (stereo not shown) [Compound 295]
[1]
  IC50: 38 nM
[2]
  IC50: 38.9 nM

## N#Cc1ccc2cc(C(F)(F)P(=O)(O)O)sc2c1Br [Compound 297, ((7-bromo-6-cyanobenzo[b]thiophen-2-yl)difluoromethyl)phosphonic acid]
[1]
  IC50: 7350 nM
[2]
  IC50: 26500 nM

## O=P(O)(O)C(F)(F)c1sc2cc(Br)ccc2c1Br [Compound 298, ((3,6-dibromobenzo[b]thiophen-2-yl)difluoromethyl)phosphonic acid]
[1]
  IC50: 11700 nM
[2]
  IC50: 21600 nM

## N#Cc1ccc2c(Br)c(C(F)(F)P(=O)(O)O)sc2c1 [Compound 299, ((3-bromo-6-cyanobenzo[b]thiophen-2-yl)difluoromethyl)phosphonic acid]
[1]
  IC50: 8980 nM
[2]
  IC50: 17100 nM

## NC(=O)c1ccc2c(Br)c(C(F)(F)P(=O)(O)O)sc2c1 [Compound 300, ((3-bromo-6-carbamoylbenzo[b]thiophen-2-yl)difluoromethyl)phosphonic acid]
[1]
  IC50: 7330 nM
[2]
  IC50: 16900 nM

## N#Cc1ccc2c(C#N)c(C(F)(F)P(=O)(O)O)sc2c1 [Compound 301, ((3,6-dicyanobenzo[b]thiophen-2-yl)difluoromethyl)phosphonic acid]
[1]
  IC50: 12900 nM
[2]
  IC50: 17000 nM

## CC(C)(O)CCOc1ccc2c(Br)c(C(F)(F)P(=O)(O)O)sc2c1 [Compound 302, ((3-bromo-6-(3-hydroxy-3-methylbutoxy)benzo[b]thiophen-2-yl)difluoromethyl)phosphonic acid]
[1]
  IC50: 37900 nM
[2]
  IC50: 43700 nM

## O=C(Nc1ccc2c(Br)c(C(F)(F)P(=O)(O)O)sc2c1)c1ccccc1 [Compound 303, ((6-benzamido-3-bromobenzo[b]thiophen-2-yl)difluoromethyl)phosphonic acid]
[1]
  IC50: 2690 nM
[2]
  IC50: 24700 nM

## [2H]C([2H])([2H])NC(=O)c1cc(OCCCS(C)(=O)=O)c2sc(C(F)(F)P(=O)(O)O)c(Br)c2c1 [Compound 304]
[1]
  IC50: 9.8 nM
[2]
  IC50: 8.9 nM

## CCNC(=O)c1cc(OCCCS(C)(=O)=O)c2sc(C(F)(F)P(=O)(O)O)c(Br)c2c1 [Compound 305]
[1]
  IC50: 8.6 nM
[2]
  IC50: 7.6 nM

## CC(C)(O)CCCOc1cc(C(N)=O)cc2c(Br)c(C(F)(F)P(=O)(O)O)sc12 [Compound 306]
[1]
  IC50: 25.7 nM
[2]
  IC50: 16.4 nM

## CC(C)=CCCOc1cc(C(N)=O)cc2c(Br)c(C(F)(F)P(=O)(O)O)sc12 [Compound 307]
[1]
  IC50: 57.5 nM
[2]
  IC50: 65 nM

## NC(=O)c1cc(OCCCCS(N)(=O)=O)c2sc(C(F)(F)P(=O)(O)O)c(Br)c2c1 [Compound 308]
[1]
  IC50: 23.4 nM
[2]
  IC50: 25.2 nM

## NC(=O)c1cc(C#CCCS(N)(=O)=O)c2sc(C(F)(F)P(=O)(O)O)c(Br)c2c1 [Compound 310]
[1]
  IC50: 77.7 nM
[2]
  IC50: 68.5 nM

## NC(=O)c1cc(CCCCS(N)(=O)=O)c2sc(C(F)(F)P(=O)(O)O)c(Br)c2c1 [Compound 311]
[1]
  IC50: 140 nM
[2]
  IC50: 120 nM

## NC(=O)c1cc(NCCCS(N)(=O)=O)c2sc(C(F)(F)P(=O)(O)O)c(Br)c2c1 [Compound 312]
[1]
  IC50: 79.1 nM
[2]
  IC50: 71.2 nM

## NC(=O)c1cc(CCc2ccccc2)c2sc(C(F)(F)P(=O)(O)O)c(Br)c2c1 [Compound 313]
[1]
  IC50: 146 nM
[2]
  IC50: 132 nM

## C[Si](C)(C)CCc1cc(C(N)=O)cc2c(Br)c(C(F)(F)P(=O)(O)O)sc12 [Compound 314]
[1]
  IC50: 47.5 nM
[2]
  IC50: 52.6 nM

## NC(=O)c1cc(OCC2CC2(F)F)c2sc(C(F)(F)P(=O)(O)O)c(Br)c2c1 (stereo not shown) [Compound 315]
[1]
  IC50: 23.4 nM
[2]
  IC50: 21.8 nM
